Experimental data: US10472352B2, “Rac inhibitors” (Geneyus LLC, priority 2017, dated 2019)
Where two headings read alike, the source gives them in different places.

Test system: BT474 breast cancer cells
Assay: BT474 Four (4) Day Cell Viability Assay
Assay type: cell-based
Settings: Homo sapiens, BT-474, 96 h, BT474, 4 days, read-out: cellular viability; for viability at 2.5 µM: 32661 2.5 μM; for viability at 5 µM: 32661 5 μM
Protocol: BT474 breast cancer cells that are Estrogen Receptor Positive and HER2+ were grown in 5% cFBS. 5,000 cells were seeded into each well of a 96-well plate and treated with escalating doses of lapatinib, fulvestrant, and 32661.

[1] = fulvestrant 3333.0 nM, lapatinib 1666.7 nM

FC(F)(F)c1ccc2c(SCCCCCCn3cnc(CN4CCOCC4)c3)ccnc2c1 [Compound 0032661, 4-[[1-[6-[[7-(trifluoromethyl)-4-quinolyl]sulfanyl]hexyl]imidazol-4-yl]methyl]morpholine]
viability at 2.5 µM [1]: 16%
viability at 2.5 µM (fulvestrant 3333.0 nM, lapatinib 3333.0 nM): 1%
viability at 5 µM (fulvestrant 0.0 nM, lapatinib 0.0 nM): 95%
viability at 5 µM (fulvestrant 0.0 nM, lapatinib 6.9 nM): 87%
viability at 5 µM (fulvestrant 0.0 nM, lapatinib 20.6 nM): 84%
viability at 5 µM (fulvestrant 0.0 nM, lapatinib 61.7 nM): 87%
viability at 5 µM (fulvestrant 0.0 nM, lapatinib 185.2 nM): 79%
viability at 5 µM (fulvestrant 0.0 nM, lapatinib 555.6 nM): 67%
viability at 5 µM (fulvestrant 0.0 nM, lapatinib 1666.7 nM): 51%
viability at 5 µM (fulvestrant 0.0 nM, lapatinib 3333.0 nM): 16%
viability at 5 µM (fulvestrant 6.9 nM, lapatinib 0.0 nM): 93%
viability at 5 µM (fulvestrant 6.9 nM, lapatinib 6.9 nM): 83%
viability at 5 µM (fulvestrant 6.9 nM, lapatinib 20.6 nM): 82%
viability at 5 µM (fulvestrant 6.9 nM, lapatinib 61.7 nM): 82%
viability at 5 µM (fulvestrant 6.9 nM, lapatinib 185.2 nM): 77%
viability at 5 µM (fulvestrant 6.9 nM, lapatinib 555.6 nM): 65%
viability at 5 µM (fulvestrant 6.9 nM, lapatinib 1666.7 nM): 42%
viability at 5 µM (fulvestrant 6.9 nM, lapatinib 3333.0 nM): 14%
viability at 5 µM (fulvestrant 20.6 nM, lapatinib 0.0 nM): 91%
viability at 5 µM (fulvestrant 20.6 nM, lapatinib 6.9 nM): 80%
viability at 5 µM (fulvestrant 20.6 nM, lapatinib 20.6 nM): 79%
viability at 5 µM (fulvestrant 20.6 nM, lapatinib 61.7 nM): 78%
viability at 5 µM (fulvestrant 20.6 nM, lapatinib 185.2 nM): 71%
viability at 5 µM (fulvestrant 20.6 nM, lapatinib 555.6 nM): 60%
viability at 5 µM (fulvestrant 20.6 nM, lapatinib 1666.7 nM): 39%
viability at 5 µM (fulvestrant 20.6 nM, lapatinib 3333.0 nM): 11%
viability at 5 µM (fulvestrant 61.7 nM, lapatinib 0.0 nM): 90%
viability at 5 µM (fulvestrant 61.7 nM, lapatinib 6.9 nM): 80%
viability at 5 µM (fulvestrant 61.7 nM, lapatinib 20.6 nM): 78%
viability at 5 µM (fulvestrant 61.7 nM, lapatinib 61.7 nM): 76%
viability at 5 µM (fulvestrant 61.7 nM, lapatinib 185.2 nM): 67%
viability at 5 µM (fulvestrant 61.7 nM, lapatinib 555.6 nM): 60%
viability at 5 µM (fulvestrant 61.7 nM, lapatinib 1666.7 nM): 39%
viability at 5 µM (fulvestrant 61.7 nM, lapatinib 3333.0 nM): 11%
viability at 5 µM (fulvestrant 185.2 nM, lapatinib 0.0 nM): 90%
viability at 5 µM (fulvestrant 185.2 nM, lapatinib 6.9 nM): 78%
viability at 5 µM (fulvestrant 185.2 nM, lapatinib 20.6 nM): 78%
viability at 5 µM (fulvestrant 185.2 nM, lapatinib 61.7 nM): 76%
viability at 5 µM (fulvestrant 185.2 nM, lapatinib 185.2 nM): 67%
viability at 5 µM (fulvestrant 185.2 nM, lapatinib 555.6 nM): 56%
viability at 5 µM (fulvestrant 185.2 nM, lapatinib 1666.7 nM): 35%
viability at 5 µM (fulvestrant 185.2 nM, lapatinib 3333.0 nM): 10%
viability at 5 µM (fulvestrant 555.6 nM, lapatinib 0.0 nM): 86%
viability at 5 µM (fulvestrant 555.6 nM, lapatinib 6.9 nM): 79%
viability at 5 µM (fulvestrant 555.6 nM, lapatinib 20.6 nM): 74%
viability at 5 µM (fulvestrant 555.6 nM, lapatinib 61.7 nM): 72%
viability at 5 µM (fulvestrant 555.6 nM, lapatinib 185.2 nM): 56%
viability at 5 µM (fulvestrant 555.6 nM, lapatinib 555.6 nM): 48%
viability at 5 µM (fulvestrant 555.6 nM, lapatinib 1666.7 nM): 29%
viability at 5 µM (fulvestrant 555.6 nM, lapatinib 3333.0 nM): 6%
viability at 5 µM (fulvestrant 1666.7 nM, lapatinib 0.0 nM): 81%
viability at 5 µM (fulvestrant 1666.7 nM, lapatinib 6.9 nM): 60%
viability at 5 µM (fulvestrant 1666.7 nM, lapatinib 20.6 nM): 60%
viability at 5 µM (fulvestrant 1666.7 nM, lapatinib 61.7 nM): 48%
viability at 5 µM (fulvestrant 1666.7 nM, lapatinib 185.2 nM): 36%
viability at 5 µM (fulvestrant 1666.7 nM, lapatinib 555.6 nM): 29%
viability at 5 µM (fulvestrant 1666.7 nM, lapatinib 1666.7 nM): 18%
viability at 5 µM (fulvestrant 1666.7 nM, lapatinib 3333.0 nM): 1%
viability at 5 µM (fulvestrant 3333.0 nM, lapatinib 0.0 nM): 56%
viability at 5 µM (fulvestrant 3333.0 nM, lapatinib 6.9 nM): 35%
viability at 5 µM (fulvestrant 3333.0 nM, lapatinib 20.6 nM): 29%
viability at 5 µM (fulvestrant 3333.0 nM, lapatinib 61.7 nM): 21%
viability at 5 µM (fulvestrant 3333.0 nM, lapatinib 185.2 nM): 22%
viability at 5 µM (fulvestrant 3333.0 nM, lapatinib 555.6 nM): 19%
viability at 5 µM [1]: 11%
